Data: US20020151583A1, “Prevention of liver cancer by administration of simvastatin” (priority 2001, published 2002)

Experiments:
alphafetoprotein = assay: Clinical case reports: monitoring of serum alphafetoprotein level under daily oral simvastatin; format: in vivo, patients
Experimental: (§1) In order to avoid unforeseen side effects, the treatment was initiated at a 20 mg dose once daily for one week. The dose was then increased to 40 mg daily during the following week, and was again increased to 60 mg daily during the third week. During the fourth week, the dose was increased to 80 mg daily (two tablets of 40 mg each) and remained the same thereafter. Following the administration of simvastatin as described above, the patients' alphafetoprotein levels were monitored on a monthly basis until values reached normal levels and then every three months thereafter in association with liver function tests and coagulation studies as part of a follow-up. In addition, an abdominal ultrasound test was performed every four months in an attempt to identify any new liver masses, and MRI (magnetic resonance imaging) studies of the liver were performed.

liver cancer = assay: Clinical case reports: imaging studies of the liver (abdominal ultrasound, MRI) for new liver masses; format: in vivo, patients
Experimental: as §1

## CCC(C)(C)C(=O)OC1C[C@@H](C)C=C2C=C[C@H](C)[C@H](CC[C@@H]3C[C@@H](O)CC(=O)O3)[C@H]21 (relative stereo) [simvastatin, butanoic acid, 2,2-dimethyl-,1,2,3,7,8,8a-hexahydro-3,7-dimethyl-8-[2-(tetrahydro-4-hydroxy-6-oxo-2H-pyran-2-yl)-ethyl]-1-naphthalenyl ester, [1S-[1α,3α,7β,8β(2S*,4S*),-8aβ]]]
alphafetoprotein; Case No. 1: Hepatitis B, rapidly increasing alphafetoprotein, progressively increased dosages of simvastatin
  time until alphafetoprotein level normalized: four
alphafetoprotein; Case No. 1: after stopping simvastatin
  alphafetoprotein level after patient stopped taking simvastatin: 33
alphafetoprotein; Case No. 1: re-introduced at progressively increased dosages
  alphafetoprotein level after simvastatin was re-introduced: normalized and has remained normalized
alphafetoprotein; Case No. 2
  alphafetoprotein level on maintenance dosages of simvastatin: remained normalized
alphafetoprotein; Case No. 2: Hepatitis B, progressively increasing alphafetoprotein, increasing doses of simvastatin
  time until alphafetoprotein level normalized: ≤ 5 months
alphafetoprotein; Case No. 3
  alphafetoprotein level after normalization: remained normalized
alphafetoprotein; Case No. 3: Hepatitis C, alphafetoprotein above 50 before treatment, protocol administration
  time until alphafetoprotein level normalized: ≤ 2 months
alphafetoprotein; Case No. 4: patients with Hepatitis B and C or other liver cirrhosis, normal alphafetoprotein, simvastatin daily since diagnosis
  elevation of alphafetoprotein during observation period: None of these patients showed an elevation of alphafetoprotein
alphafetoprotein; patients with an elevated alphafetoprotein level (above 10 ng/mL) who underwent treatment
  course of alphafetoprotein level: progressively decline over several weeks to several months to normal values
Liver cancer; Case No. 1
  liver tumor mass in repeated imaging studies: never showed any liver tumor mass
Liver cancer; Case No. 2
  liver tumor mass in repeated imaging studies: never showed any liver tumor mass
Liver cancer; Case No. 3
  liver tumor mass in repeated imaging studies: never showed any liver tumor mass
Liver cancer; patients with an elevated alphafetoprotein level who underwent treatment
  subsequent development of liver cancer: None of the patients subsequently developed liver cancer
Liver cancer; patients with known liver diseases at high risk, liver diseases continued to progress
  malignancy detected by careful imaging studies: no malignancy was ever detected
